In patent US5840859A, “(Aminostyryl)pyridinium compounds for radiolabelling cell membranes” (Research Corporation Technologies, Inc., priority 1996, dated 1998):
Values belong to the molecule of their own block, whether it stands above or below them.

Tests used:
mononuclear leukocytes = test: Mononuclear leukocyte labeling yield; type: cell-based; settings: harvested from 20 mL canine blood via isolymph method
Description: Using ^125 I-4b and ^131 I-4b, mononuclear leukocytes harvested from 20 mL canine blood via the isolymph method (sodium diatrizoste and Ficol 400, d=1.077) were labeled in 77% and 85% yields, respectively. Thus, the present compounds can label both lymphocytes and mixed leukocytes in high yields, and that the latter can be used to image sites of focal inflammation.

[1] = tested on: sodium urate induced abscess in the stifle joint; test: Localization of labeled leukocytes in dogs having a sodium urate induced abscess in the stifle joint (aspirate, gamma camera images)
Excerpt: Mixed leukocytes labeled with 4b and ^111 In-oxine labeled mixed leukocytes were compared in dogs having a sodium urate-induced inflammation in the left stifle joint. […]

mixed leukocytes = test: Mixed leukocyte labeling yield; type: cell-based, canine; settings: for Mixed leukocyte labeling yield: 125I labeled, average, 10-30 μCi, 250-325 Ci/mmol
Description: Labeling of mixed leukocytes (harvested from 20 mL canine blood) with 4a-d was performed using five different procedures: 1) labeling in Diluent C (a commercial non-ionic cell labeling media developed by Zynaxis Co. that is not approved for human use) after two saline washes of the cell pellet; 2) labeling in saline after two saline washes of the cell pellet; 3) labeling in saline with no saline washes of the cell pellet; 4 and 5) labeling in ether 10% or 100% platelet poor plasma (PPP).
Unwashed mixed leukocytes in 1.5 mL 10% PPP in saline were also tested. […]
This was evaporated to dryness under vacuum in a speed vac and reconstituted into 30 ul ethanol. Forty milliliters of canine blood was drawn into a 60 mL syringe containing 6.5 mL acetate-citrate-dextrose solution. To this was added 5.5 mL 2% methyl cellulose in saline. The contents of the syringe were gently mixed by several inversions of the syringe and the syringe placed vertically, needle end up, for 45 minutes to allow the red blood cells to settle. The plasma was drawn off and placed into a 50 mL Falcon tube. The tube was centrifuged at 1100 rpm for 15 minutes to pellet the leukocytes. The plasma was removed and the cells resuspended in 2 mL saline. In a 1 mL plastic microcentrifuge was placed 0.5 mL saline. […] The cells were then underlayered with 7.5 mL of platelet poor plasma and centrifuged at 1600 rpm for seven minutes to pellet the cells. The supernatant was removed, the cells resuspended in 10 mL saline, and transferred to a new tube. The supernatant, cells, and labeling tube were counted for radioactivity. The cells were centrifuged again at 1600 rpm for 7 minutes, the supernatant removed, and the cells resuspended.
A sample of canine blood (20 mL) was drawn into a 60 mL syringe containing 3 mL acetate-citrate-dextrose (ACD) solution. To this was added 3 mL 2% methyl cellulose in saline. The contents of the syringe were gently mixed by several inversions, and the syringe was then placed vertically, needle end up, for 45 min to allow the red blood cells to settle. The plasma was drawn off and transferred to a 50 mL Falcon tube. The tube was centrifuged at 1100 rpm for 15 min to pellet the leukocytes. The plasma was removed and the cells resuspended in 10 mL saline. The tube was centrifuged at 1600 rpm for 7 min, the supernatant removed, and the cells resuspended in 10 mL saline and recentrifuged at 1600 rpm for 7 min. The supernatant was then removed and the cells resuspended in 2 mL Diluent C. Into a 1 mL plastic microcentrifuge tube was placed 0.5 mL Diluent C. […] The indium complex in Diluent C was immediately added to the leukocytes and the cells were placed vertically on a Nutator rocking apparatus and rocked gently for 30 min at room temperature. The cells were then underlayered with 5 mL of platelet poor plasma and centrifuged at 1600 rpm for 7 min to pellet the cells. The supernatant was removed, the cells resuspended in 10 mL saline, and transferred to a new tube. The supernatant, cells, and labeling tube were counted for radioactivity. The cells were centrifuged again at 1600 rpm for 7 min, the supernatant removed, and the cells resuspended.

[2] = tested on: inflammatory lesions / abscesses; settings: cited from earlier work
[3] = 48 hour, estimated from region of interest (ROI) measurements
[4] = Experiment 3, injected 88 μCi 131I-4b, 331 μCi 111In-oxine, Diluent C
[5] = Experiment 4, injected 255 μCi 131I-4b, 288 μCi 111In-oxine, Diluent C
[6] = Experiment 5, injected 272 μCi 131I-4b, 326 μCi 111In-oxine, saline
[7] = Experiment 6, injected 211 μCi 131I-4b, 378 μCi 111In-oxine, saline
[8] = Table 3 Experiment 3, 4b 500 Ci/mmol, Diluent C after 2 × 10 mL saline washes
[9] = Table 3 Experiment 4, 4b 1000 Ci/mmol, Diluent C after 2 × 10 mL saline washes
[10] = Table 3 Experiment 5, 4b 800 Ci/mmol, saline after 2 × 10 mL saline washes
[11] = Table 3 Experiment 6, 4b 800 Ci/mmol, saline after 2 × 10 mL saline washes
[12] = labeled leukocytes, McAfee et al.

lung sequestration of labeled leukocytes ([1]; dog, in vivo): No lung sequestration was observed
percent injected dose per organ, liver ([1]; dog, in vivo, 2880 min): 8.7%
Molecule: CCCCCCN(CCCCCC)c1ccc(/C=C/c2cc[n+](C/C=C/[131I])cc2)cc1 [^131 I-4b, 3-[4-[2-(N,N-dihexylamino)phenyl]ethyenyl]pyridino-E-1-[^131 I]-iodo-propene]
Mononuclear leukocyte labeling yield (mononuclear leukocytes): 85%
percent injected dose per organ, abscess [1, 3]: 1.15%
131I/111In or 125I/111In in aspirate ([1]; Experiment 3): 2.6
% aspirate radioactivity cell bound ([1]; Experiment 3): 93%
abscess to contralateral knee ratio ([1]; Experiment 3, 3 hour): 3.7
abscess to surrounding tissue ratio ([1]; Experiment 3, 3 hour): 2.3
% inj. dose in abscess aspirate [1, 4]: 0.050%
131I/111In or 125I/111In in aspirate ([1]; Experiment 4): 3.5
% aspirate radioactivity cell bound ([1]; Experiment 4): 97%
abscess to contralateral knee ratio ([1]; Experiment 4, 48 hours): 9.1
abscess to surrounding tissue ratio ([1]; Experiment 4, 48 hours): 6.3
% inj. dose in abscess aspirate [1, 5]: 0.194%
131I/111In or 125I/111In in aspirate ([1]; Experiment 5): 4.3
% aspirate radioactivity cell bound ([1]; Experiment 5): 95%
% inj. dose in abscess aspirate [1, 6]: 0.092%
131I/111In or 125I/111In in aspirate ([1]; Experiment 6): 22
% aspirate radioactivity cell bound ([1]; Experiment 6): 94%
% inj. dose in abscess aspirate [1, 7]: 0.355%
localization of labeled leukocytes in induced inflammatory site/abscess, compared with 111In-oxine (111In-labeled) leukocytes ([1]; sodium urate induced abscess, dog): higher degree of localization
131I bound to the cells (mixed leukocytes; Example 10, of 372 uCi added, saline, 20 min): 340 uCi
131I bound to the cells (labeling yield) (mixed leukocytes; Example 10, saline, 372 uCi, 20 min, room temperature, after second centrifugation): 91%
Labeling Yield (mixed leukocytes; [8]): 88%
Labeling Yield (mixed leukocytes; [9]): 88%
Labeling Yield (mixed leukocytes; [10]): 86%
Labeling Yield (mixed leukocytes; [11]): 87%

Molecule: indium-111 complex of N-[methyl(2-(Di-10-ASP-propylthiourea)ethyl)carbamide]-trans-1,2-diaminocyclohexane-N,N',N'-triacetic acid [^111 In-19b]
Mixed leukocyte labeling yield, 111In complexes (mixed leukocytes; Diluent C): 84%
111In bound to the cells (labeling yield) (mixed leukocytes; Example 15, Diluent C, 44.4 μCi, 30 min, room temperature): 84%
111In bound to the cells (mixed leukocytes; Example 15, of 44.4 μCi added): 37.4 μCi

Molecule: [In+3].[O-]c1cccc2cccnc12.[O-]c1cccc2cccnc12.[O-]c1cccc2cccnc12 [^111 In-oxine, reference compound]
absolute inflammatory lesion uptake ([2]; compared with all agents yet tested): highest absolute inflammatory lesion uptake of all agents yet tested
abscess visibility in gamma camera images ([1]; 3 hours): the abscess was visible at 3 hours
percent injected dose per organ, liver [1, 3]: 13.1%
% aspirate radioactivity cell bound ([1]; Experiment 1): 95%
% inj. dose in abscess aspirate ([1]; Experiment 1, injected 84 μCi 125I-4b, 500 μCi 111In-oxine, Diluent C): 0.383%
% aspirate radioactivity cell bound ([1]; Experiment 2): 98%
% inj. dose in abscess aspirate ([1]; Experiment 2, injected 66 μCi 125I-4b, 312 μCi 111In-oxine): 0.088%
% aspirate radioactivity cell bound ([1]; Experiment 3): 79%
abscess to contralateral knee ratio ([1]; Experiment 3, 3 hour): 2.7
abscess to surrounding tissue ratio ([1]; Experiment 3, 3 hour): 2.0
% inj. dose in abscess aspirate [1, 4]: 0.019%
% aspirate radioactivity cell bound ([1]; Experiment 4): 88%
abscess to contralateral knee ratio ([1]; Experiment 4, 48 hours): 4.0
abscess to surrounding tissue ratio ([1]; Experiment 4, 48 hours): 2.6
% inj. dose in abscess aspirate [1, 5]: 0.056%
% aspirate radioactivity cell bound ([1]; Experiment 5): 92%
% inj. dose in abscess aspirate [1, 6]: 0.021%
131I/111In or 125I/111In in aspirate ([1]; Experiment 6): 22
% aspirate radioactivity cell bound ([1]; Experiment 6): 78%
% inj. dose in abscess aspirate [1, 7]: 0.016%
gamma camera images, comparison of 4b and 111In-oxine ([1]; between 1 hour and 3 hours): comparable
Labeling Yield (mixed leukocytes; Table 3 Experiment 1, 4b 250 Ci/mmol, Diluent C after 2 × 10 mL saline washes): 88%
Labeling Yield (mixed leukocytes; Table 3 Experiment 2, 4b footnotes a,c (250 / 1000 Ci/mmol)): 91%
Labeling Yield (mixed leukocytes; [8]): 85%
Labeling Yield (mixed leukocytes; [9]): 94%
Labeling Yield (mixed leukocytes; [10]): 89%
Labeling Yield (mixed leukocytes; [11]): 87%

Molecule: indium-111 complex of N-[methyl(2-(Di-6-ASP-acetamido)ethyl)carbamide]-trans-1,2-diaminocyclohexane-N,N',N'-triacetic acid [^111 In-18]
Mixed leukocyte labeling yield, 111In complexes (mixed leukocytes; Diluent C): 21%

Molecule: CCCCCCCCN(CCCCCCCC)c1ccc(/C=C/c2cc[n+](C/C=C/[125I])cc2)cc1 [Compound 4c]
Mixed leukocyte labeling yield (mixed leukocytes; Diluent C): 52%
Mixed leukocyte labeling yield (mixed leukocytes; saline, 2 washes of pellet): 32%
Mixed leukocyte labeling yield (mixed leukocytes; saline, no washes of pellet): 6%
Leukocyte labeling (in words) (mixed leukocytes; five labeling procedures compared): only labeled leukocytes in useful yields using Diluent C

Molecule: C/C(=N\[O-])[C@@H](C)[N-]CC(C)(C)C[N-][C@H](C)/C(C)=N/O.[O]=[99Tc+3] (racemic) [^99m Tc-HMPAO]
stability compared with the 111In radiopharmaceuticals ([2]; in vitro and in vivo): less stable both in vitro and in vivo
nonspecific biodistribution ([2]; labeled leukocytes, in vivo): diffuse abdominal radioactivity, gall bladder uptake
target to background ratios compared with cells labeled with 111In-oxine [2, 12]: lower target to background ratios
uptake in abscesses compared with cells labeled with 111In-oxine [2, 12]: lower absolute uptake in abscesses
renal excretion of unidentified polar species containing 99mTc, earliest time ([2]; printed as early as three hours post injection): three hours post injection

Molecule: indium-111 complex of N-[methyl(2-(Di-4-ASP-propylthiourea)ethyl)carbamide]-trans-1,2-diaminocyclohexane-N,N',N'-triacetic acid [^111 In-19a]
Mixed leukocyte labeling yield, 111In complexes (mixed leukocytes; Diluent C): 4%
